Experimental findings from article PMC9312901 (2022) are described below.

Test [1] deals with APT (3-O-C12-HSL aptamer) (DNA, aptamer) GCAATGGTACGGTACTTCCCGGGGCCCGCTTCTGGTGCGGTGTACTAGTGACCGCAAAAGTGCACGCTACTTTGCTAA
Put plainly: EIS aptasensor (C-SPE/AuNPs/APT/MCH). As to conditions: 10 µM compound, 30 min, room temperature; [Fe(CN)6]3-/4- redox probe.

Test [2] shares this test system. As to the kind of experiment: SPR, steady-state affinity fit. As to conditions: Na+ 100 mM; K+ 100 mM; Mg2+ 10 mM (TRIS buffer; running buffer printed only as 10 mM TRIS); 10 mM TRIS pH 7.4 running buffer; aptamer on gold chip, MCH blocked; 10-1000 nM. In general terms: Surface plasmon resonance follows binding to a sensor surface in real time, without labels.
The test system is the same in test [3]. As to the kind of experiment: SPR, kinetic 1:1 Langmuir fit (kd/ka). As to conditions: Na+ 100 mM; K+ 100 mM; Mg2+ 10 mM (TRIS buffer; running buffer printed only as 10 mM TRIS); 10 mM TRIS pH 7.4 running buffer; aptamer on gold chip, MCH blocked; 10-1000 nM.
Test [4] shares this test system. Put plainly: DPV on C-SPE/AuNPs/APT/MCH electrode. As to conditions: 0.5 mM MB, 30 min; measured in 10 mM PBS pH 7.4; MB lost on successive blank incubations.

Take `CCCC(=O)N[C@H]1CCOC1=O`: the binding entry in test [1] is “weak”.

Turning to `CCCCCCCC(=O)CC(=O)N[C@H]1CCOC1=O`, the binding result in test [1] is recorded as “yes”.

Regarding `CCCCCCCCCC(=O)CC(=O)N[C@H]1CCOC1=O`, in test [2], the “KD,equilibrium” value was 0.1067 ± 0.0093 µM. In test [3], the “KD,kinetic” value amounted to 0.0871 ± 0.01 µM.

On to `CCCCCCCCCCCC(=O)N[C@H]1CCOC1=O`, for which the binding result in test [1] was “yes”.

As for `CN(C)c1ccc2nc3ccc(N(C)C)cc3[s+]c2c1`, the binding result in test [4] is “yes”.
